Tests used:
[1] = Inhibition of Porphyromonas gingivalis recombinant CA by CO2 hydration assay
Carbonic anhydrase = target: T1, Carbonic anhydrase (Methanosarcina thermophila, UniProt P40881); assay: Inhibition of Methanosarcina thermophila recombinant gamma-CA by CO2 hydration assay
T1 sequence (P40881 whole entry): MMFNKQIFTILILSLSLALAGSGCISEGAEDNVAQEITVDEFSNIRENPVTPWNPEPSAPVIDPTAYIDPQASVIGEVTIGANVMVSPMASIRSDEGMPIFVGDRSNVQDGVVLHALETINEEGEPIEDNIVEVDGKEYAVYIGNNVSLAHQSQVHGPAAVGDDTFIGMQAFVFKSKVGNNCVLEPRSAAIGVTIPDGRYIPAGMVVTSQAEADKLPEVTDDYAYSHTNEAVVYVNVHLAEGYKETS

## N=C=[Se] [SODIUM ISOSELENOCYANATE]
[1]
  Ki: 0.91 mM

## [N-]=[N+]=[N-] [SODIUM AZIDE]
[1]
  Ki: 0.073 mM

## O=[N+]([O-])[O-].[Na+] [SODIUM NITRATE]
Carbonic anhydrase
  Ki: 36.5 mM
[1]
  Ki: 8.5 mM

## O=S(=O)(O)OOS(=O)(=O)O [SODIUM PERSULFATE]
[1]
  Ki: 8.7 mM

## [I-].[Na+] [SODIUM IODIDE]
Carbonic anhydrase
  Ki: 160 mM
[1]
  Ki: 8.7 mM

## O=[Te](=O)(O)O [SODIUM TELLURATE]
[1]
  Ki: 16.7 mM

## OB(O)c1ccccc1 [PHENYLBORONIC ACID]
[1]
  Ki: 0.0098 mM

## [O-][Cl+3]([O-])([O-])O [SODIUM PERCHLORATE]
[1]
  Ki: > 200 mM

## O=BOB(O)OB(O)OB=O [SODIUM TETRABORATE]
[1]
  Ki: 71.6 mM

## F[B-](F)(F)F.[Na+] [SODIUM TETRAFLUOROBORATE]
[1]
  Ki: > 200 mM

## S [SODIUM HYDROSULFIDE]
[1]
  Ki: 0.092 mM

## NS(N)(=O)=O [SULFAMIDE]
[1]
  Ki: 0.0092 mM

## O=C([O-])[O-].[Na+].[Na+] [SODIUM CARBONATE]
Carbonic anhydrase
  Ki: 6.7 mM
[1]
  Ki: 0.89 mM

## S=C(S)S [SODIUM CARBONOTRITHIOATE]
[1]
  Ki: 0.097 mM

## O=[As](O)(O)c1ccccc1 [PHENYLARSONIC ACID]
[1]
  Ki: 0.09 mM

## O=S(=O)(O)ONOS(=O)(=O)O [SODIUM IMINODISULFATE]
[1]
  Ki: 7.7 mM

## O=NO [SODIUM NITRITE]
[1]
  Ki: 3.1 mM

## CCN(CC)C(=S)S [DITIOCARB SODIUM]
[1]
  Ki: 0.004 mM

## [F-].[Na+] [SODIUM FLUORIDE]
[1]
  Ki: 0.95 mM

## [Br-].[Na+] [SODIUM BROMIDE]
Carbonic anhydrase
  Ki: 60 mM
[1]
  Ki: 0.92 mM

## N=C=S [SODIUM ISOTHIOCYANATE]
Carbonic anhydrase
  Ki: 7 mM
[1]
  Ki: 0.093 mM

## O=S([O-])O.[Na+] [SODIUM BISULFITE]
Carbonic anhydrase
  Ki: 11.7 mM
[1]
  Ki: 9.3 mM

## O=C([O-])O.[Na+] [SODIUM BICARBONATE]
Carbonic anhydrase
  Ki: 42 mM
[1]
  Ki: 0.96 mM

## O=[Se](=O)(O)O [SODIUM SELENATE]
[1]
  Ki: 85.5 mM

## NS(=O)(=O)O [SULFAMATE]
[1]
  Ki: 0.093 mM

## O=S(=O)([O-])[O-].[Na+].[Na+] [SODIUM SULFATE ANHYDROUS]
Carbonic anhydrase
  Ki: > 200 mM
[1]
  Ki: 8.7 mM

## [Cl-].[Na+] [SODIUM CHLORIDE]
Carbonic anhydrase
  Ki: > 200 mM
[1]
  Ki: 0.94 mM

— ChEMBL document CHEMBL2401680, “A highly catalytically active γ-carbonic anhydrase from the pathogenic anaerobe Porphyromonas gingivalis and its inhibition profile with anions and small molecules” (Bioorg Med Chem Lett, 2013)
